From patent publication US10233146B2, “Acetylenic cyanoenones as therapeutics for inflammation and carcinogenesis” (THE RESEARCH FOUNDATION FOR THE STATE UNIVERSITY OF NEW YORK, priority 2015, dated 2019)
pIC50: −log10 of the molar value. Several values for one entry are separate records, joined by “and”; a condition that tells them apart may be missing. Identical values can stand only once. Entries after “also recorded” stand apart in the source; their conditions may differ. Like-named read-outs stand apart in the source and are kept apart here.

Experiments:
NQO1 = assay: Induction of NQO1 in Hepa1c1c7 murine hepatoma cells; type: cell-based; settings: for EC (2-fold NQO1 activity): Hepa1c1c7 cells, 48 h treatment, read-out: NQO1 CD (concentration required to double the specific enzyme activity of NQO1); for magnitude of NQO1 induction at higher concentrations: FIG. 3, concentrations higher than the CD values
Source text: In this assay, the concentration required to double (CD value) the specific enzyme activity of NQO1 is used to quantify inducer potency. […] Dinkova-KOstova, A. T. et al. 2012). […] These compounds may be more robust inducers than monocyclic compounds. [table]

[1] = UV study of Michael adduct formation with DTT; type: physicochemical; settings: for A (absorbance) With DTT (1 equiv) / λmax With DTT (1 equiv) / A (absorbance) With DTT (10 equiv) / λmax With DTT (10 equiv): 0.1 mM compound, phosphate buffer saline-1% ethanol (pH 7.4), rt; for A (absorbance) With DTT (1 equiv) / λmax With DTT (1 equiv): 0.1 mM DTT; for A (absorbance) With DTT (10 equiv) / λmax With DTT (10 equiv): 1 mM DTT; for K (equilibrium constant): 0.1 mM of compound with 0.1 mM of DTT
Description: Calculation of Approximate Equilibrium Constant (K)
The concentrations of 3, with initial concentration of 0.1 mM, and DTT, with initial concentration of 0.1 mM, in the phosphate buffer are calculated to be 0.0855 mM as follows: (1) The absorbance (A) is 0.956 at 0.1 mM concentration of 3 in deionized water. (2) The A of 3 is 0.817 in the phosphate buffer. (3) The concentrations of 3 and DTT in the buffer are calculated to be 0.0855 mM based on (1) and (2). From these concentrations, the approximate K is calculated as follows: K=[Adduct]/[3]×[DTT]=0.0145×10^−3/[…]=2.0×10^3 (Liters/mol).
Unfortunately, since the λmax of 4-8 was not observed due to the overlapping, we can't calculate the concentrations of the adducts of 4-8 by the same method as for 3. However, since we can speculate that the ε of the adducts of 4-8 is almost similar to that of the adduct of 2, we can calculate the concentrations of the adducts of 4-8 based on the A (0.227 at 0.0145 mM) of the adduct of […] and the A of the adducts of 4-8. For example, the concentration of the adduct of 5 is 0.0145×0.369 (A of the adduct of 5)/0.227=0.0235 (mM). Therefore, the concentrations of 5 and DTT are 0.0765 (mM/each). Thus, K of 5=0.0235×10^−3/0.0765×0.0765×10^−6=4.0×10^3 (Liters/mol). The K of 4 and 6-8 are also calculated using the A (0.227 at 0.0145 mM) of the adduct of 3 and the A of the adducts of 4 and 6-8, respectively.
Chemical reactivity of monocyclic, bicyclic, and tricyclic compounds 4-15 as Michael acceptors was evaluated using UV spectroscopy.
Michael reaction between ethynylcyanodienones with DTT give adducts IV (Scheme 11). Since adducts IV have different UV absorption spectra (λmax 330-380 nm) from those of the corresponding ethynylcyanodienones (λmax 230-320 nm), UV spectroscopy can clarify whether or not the Michael adducts are produced.^6
(§1) 1. UV Studies on Monocyclic and Bicyclic Compounds 4-9 with DTT Compounds 5-8 with DTT gave similar UV spectra to those of 3 (Taylor, S. K. et al. 1988). Compounds 5-8 have local maximum absorptions at 332-338 nm upon the addition of DTT (1 and 10 equiv) under dilute (0.1 mM of the compounds) and neutral aqueous conditions (pH 7.4 phosphate buffered saline-1% ethanol containing 1 mM KH2PO4, 5.6 mM Na2HPO4, and 154 mM NaCl) (Table 1 and FIG. 2). Also, these compounds react with a chloride anion (a much weaker nucleophile than a sulfhydryl group of DTT), which is contained in the buffer solution, to give Michael adducts whose local maximum absorptions are observed at 320-326 nm.
We have calculated approximate equilibrium constants (K) of these Michael reactions in the solutions of 5-8 with DTT (each initial concentration, 0.1 mM. See the calculation of the equilibrium constants in the Supporting Information). The values of K are approximately 1.0-4.2×10^3 (L/mol), implying that these additions are very strongly favored.
Tricyclic compounds 10-15 react with DTT to give the adducts whose local maximum absorptions are observed at 374-383 nm range (Table 1 and FIG. 2). […] Among phenanthrene derivatives, substitutents at C5 decrease the reactivity.

[2] = UV study of Michael adduct formation with chloride anion of the buffer (without DTT); type: physicochemical; settings: 0.1 mM compound, phosphate buffer saline-1% ethanol (pH 7.4)
Description: as §1, with “nm. […]” for “nm.”

Compound | pIC50 (iNOS) | EC (2-fold NQO1 activity) (NQO1) [µM] | melting point [°C] | A (absorbance) With DTT (1 equiv) [1] | λmax With DTT (1 equiv) [1] [nm] | A (absorbance) With DTT (10 equiv) [1] | λmax With DTT (10 equiv) [1] | K (equilibrium constant) [1] [L/mol] | approximate equilibrium constant K of Michael reaction with DTT ([1]; each initial concentration 0.1 mM) [L/mol] | A (absorbance) Without DTT (With Cl^—) [2] | λmax Without DTT (With Cl^—) [2] [nm] | EC (2-fold NQO1 activity) (NQO1; Mus musculus, Hepa-1c1c7) [µM] | approximate equilibrium constant K (calculation) ([1]; initial 0.1 mM compound and 0.1 mM DTT, phosphate buffer) [L/mol] | magnitude of NQO1 induction at higher concentrations (NQO1)
CC1(C)CC[C@]2(C(=O)O)CC[C@]3(C)[C@H](C(=O)C=C4[C@@]5(C)C=C(C#N)C(=O)C(C)(C)[C@@H]5CC[C@]43C)[C@@H]2C1 [CDDO, reference compound] | 7.64 | 0.0023 | – | – | – | – | – | – | – | – | – | – | – | –
C#CC1(C#C)C=CC(=O)C(C#N)=C1 [Compound 4, 3,3-Diethynyl-6-oxocyclohexa-1,4-dienecarbonitrile] | 6.68 | – | 110 to 111 | 0.614 | 330 | 0.510 and 0.439 | 333 nm and 250 nm | 10600 | ~10600 | 0.635 | 328 | 0.18 | – | –
C#CC1(C=C)C=CC(=O)C(C#N)=C1 (stereo not shown) [Compound 5, 3-Ethynyl-6-oxo-3-vinylcyclohexa-1,4-dienecarbonitrile] | 7.80 | – | 76 to 77 | 0.369 | 335 | 0.481 | 338 nm | 4000 | – | 0.197 | 326 | 0.02 | 4000 | –
C#CC1(CC)C=CC(=O)C(C#N)=C1 (stereo not shown) [Compound 6, 3-Ethyl-3-ethynyl-6-oxocyclohexa-1,4-dienecarbonitrile] | – | – | 73 to 75 | 0.135 | 332 | 0.353 | 335 nm | 1000 | – | 0.036 | 320 | 0.042 | – | –
C#CC12C=C(C#N)C(=O)C=C1CCC2 (stereo not shown) [Compound 7, 3a-Ethynyl-6-oxo-2,3,3a,6-tetrahydro-1H-indene-5-carbonitrile] | 6.80 | – | 107 to 108 | 0.281 | 333 | 0.355 | 337 nm | 2700 | – | 0.151 | 324 | 0.056 | – | induce NQO1 more effectively than monocyclic compounds 3-6
C#CC12C=C(C#N)C(=O)C=C1C(C)(C)CC2 (stereo not shown) [Compound 8, 3a-Ethynyl-1,1-dimethyl-6-oxo-2,3,3a,6-tetrahydro-1H-indene-5-carbonitrile] | 6.70 | – | – | 0.376 | 333 | 0.472 | 337 nm | 4200 | – | 0.279 | 324 | 0.1 | – | –
C#CC1(C)C=C(C#N)C(=O)c2ccccc21 (stereo not shown) [Compound 9, 4-Ethynyl-4-methyl-1-oxo-1,4-dihydronaphthalene-2-carbonitrile] | – | – | – | 0.848 | 331 | 0.872 | 333 nm | – | – | 0.831 | 321 | 0.22 | – | –
C#CC12C=C(C#N)C(=O)C=C1c1ccccc1CC2 (stereo not shown) [Compound 10, 10a-Ethynyl-3-oxo-3,9,10,10a-tetrahydrophenanthrene-2-carbonitrile] | – | – | 209.5 to 211 | shoulder | 380 | 0.723 | 382 nm | – | – | – | – | 0.15 | – | induce NQO1 more effectively than monocyclic compounds 3-6
C#CC12C=C(C#N)C(=O)C=C1c1c(Cl)cccc1CC2 (stereo not shown) [Compound 11, 5-Chloro-10a-ethynyl-3-oxo-3,9,10,10a-tetrahydrophenanthrene-2-carbonitrile] | – | – | > 230 | shoulder | 380 | 0.262 | 380 nm | – | – | – | – | 0.9 | – | induce NQO1 more effectively than monocyclic compounds 3-6
C#CC12C=C(C#N)C(=O)C=C1c1c(Br)cccc1CC2 (stereo not shown) [Compound 12, 5-Bromo-10a-ethynyl-3-oxo-3,9,10,10a-tetrahydrophenanthrene-2-carbonitrile] | 6.19 | – | 202 to 205 | – | – | – | – | – | – | – | – | 1.3 | – | –
C#CC12C=C(C#N)C(=O)C=C1c1c(C)cccc1CC2 (stereo not shown) [Compound 13, 10a-Ethynyl-5-methyl-3-oxo-3,9,10,10a-tetrahydrophenanthrene-2-carbonitrile] | 6.03 | – | 195.5 to 197 | – | – | 0.279 | 374 nm | – | – | – | – | 1.8 | – | –
C#CC12C=C(C#N)C(=O)C=C1c1ccccc1C2 (stereo not shown) [Compound 14, 9a-Ethynyl-3-oxo-9,9a-dihydro-3H-fluorene-2-carbonitrile] | 6.32 | – | 202 to 203 | 0.808 | 377 | 0.820 | 382 nm | – | – | 0.867 | 364 | 0.041 | – | induce NQO1 more effectively than monocyclic compounds 3-6; also recorded: induces NQO1 to a greater magnitude than 3 and 5
C#CC12C=C(C#N)C(=O)C=C1c1c(Cl)cccc1C2 (stereo not shown) [Compound 15, 5-Chloro-9a-ethynyl-3-oxo-9,9a-dihydro-3H-fluorene-2-carbonitrile] | 6.10 | – | 191 to 193 | 0.819 | 378 | 0.803 | 383 nm | – | – | 1.025 | 369 | 0.13 | – | –
C[S+]([O-])CCCCN=C=S (stereo not shown) [Sulforaphane, reference compound] | 6.40 | – | – | – | – | – | – | – | – | – | – | 0.2 | – | –
